As usually defined, the GI50 is the concentration that inhibits growth by half.

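Growth conditions: 96-well plates. Treatment: test compound, 48 hours, 5 concentrations. Analysis: linear interpolation between bracketing concentrations; unreached endpoints set to highest concentration. The concentration for 50% growth inhibition is given as GI50.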 Activity calls are given as the source filed them. Rule as the data show it: active = GI50 up to about 1.1 µM and inactive = higher. Bounds are passed on as bounds.

Data on eleven compounds can be found in ChEMBL document CHEMBL1201862, “PubChem BioAssay data set” (2004).

Some test systems named below: A549; ACHN; CAKI-1; DU-145; HCT-15; HOP-62; HT-29; K562; KM12; LOX IMVI; M14; MDA-N; NCI-H226; OVCAR-4; SK-MEL-5; SK-OV-3; SR; TK-10; UACC-257; SK-MEL-2.
Common to all, as to assay: DTP human tumour cell line panel, 48 h

Consider `C=CO/N=[N+](\[O-])N(CC)CC`, for which the GI50 in the assay on A549 is > 100 µM (inactive); in the assay on ACHN, > 100 µM (inactive); in the assay on CAKI-1 it was > 100 µM (inactive); in the assay with DU-145, > 100 µM (inactive); with HCT-15, > 100 µM; with HOP-62, > 100 µM (inactive). Also, the GI50 with HT-29, with K562, with KM12, in the assay with LOX IMVI, in the assay on M14 and in the assay on MDA-N was > 100 µM (inactive) in each case. In addition, the GI50 in the assay on NCI-H226, in the assay with OVCAR-4, in the assay on SK-MEL-5, with SK-OV-3, in the assay with SR and with TK-10 was > 100 µM (inactive) throughout. The GI50 with UACC-257 was > 100 µM (inactive).
As for `COC(=O)CCC1(O)C=CC(=O)C=C1`, the GI50 in the assay with A549 was > 100 µM (inactive); with ACHN it was 51.6 µM (inactive); with CAKI-1, 16.6 µM (inactive); with DU-145, 36.8 µM (inactive); in the assay on HCT-15, 18.4 µM; with HOP-62, > 100 µM (inactive). Besides, the GI50 in the assay with HT-29 was 36.7 µM (inactive); in the assay on K562, 38.9 µM (inactive); in the assay with KM12, > 100 µM (inactive); with LOX IMVI, 30.3 µM (inactive); in the assay on M14 it was 40.8 µM (inactive); in the assay with MDA-N it was 63.4 µM (inactive). The GI50 in the assay with NCI-H226 was > 100 µM (inactive); with OVCAR-4, 65.8 µM (inactive); in the assay on SK-MEL-2, > 100 µM (inactive); in the assay on SK-MEL-5 it was 31.9 µM (inactive); in the assay with SR it was 25 µM (inactive); in the assay with TK-10, 36.7 µM (inactive). The GI50 with UACC-257 is 17.1 µM (inactive).
With `Cc1ccc(C(=O)N/N=C(\N=N\c2ccccc2)c2ccc(N(C)C)cc2)cc1`, the GI50 is > 100 µM (inactive) in the assay on A549; 44.5 µM (inactive) with CAKI-1; 20.9 µM (inactive) in the assay on DU-145; > 100 µM in the assay on HCT-15; > 100 µM (inactive) in the assay with HT-29; 52.2 µM (inactive) with K562. The GI50 is 71.1 µM (inactive) with KM12; > 100 µM (inactive) in the assay with LOX IMVI; > 100 µM (inactive) in the assay with M14; 29.4 µM (inactive) with MDA-N; > 100 µM (inactive) in the assay with NCI-H226; 16.3 µM (inactive) in the assay on OVCAR-4. Besides, the GI50 was > 100 µM (inactive) in the assay on SK-MEL-2; 92 µM (inactive) in the assay with SK-MEL-5; > 100 µM (inactive) in the assay on SK-OV-3; 35.5 µM (inactive) in the assay on SR; > 100 µM (inactive) in the assay on TK-10; > 100 µM (inactive) with UACC-257.
With `O=c1c2cc(S(=O)(=O)Nc3ccccc3Cl)ccc2ncn1NS(=O)(=O)c1ccc(Br)cc1`, the GI50 was > 37.5 µM (inactive) in the assay with A549; > 37.5 µM (inactive) in the assay with ACHN; > 37.5 µM (inactive) in the assay on CAKI-1; > 37.5 µM (inactive) with DU-145; > 37.5 µM in the assay with HCT-15; > 37.5 µM (inactive) with HOP-62. For the same compound, the GI50 was > 37.5 µM (inactive) in the assay with HT-29; 17.8 µM (inactive) in the assay on K562; > 37.5 µM (inactive) with KM12; > 37.5 µM (inactive) in the assay with LOX IMVI; > 37.5 µM (inactive) with M14; > 37.5 µM (inactive) with MDA-N. In addition, the GI50 in the assay on NCI-H226, in the assay on OVCAR-4, with SK-MEL-2, with SK-OV-3, in the assay on SR and in the assay on TK-10 was > 37.5 µM (inactive) in each case. Besides, the GI50 in the assay on UACC-257 is > 37.5 µM (inactive).
Turning to `CN(C)c1ccc(C2CC(c3ccc4ccccc4c3O)=NN2c2ccc([N+](=O)[O-])cc2[N+](=O)[O-])cc1` (centres undefined), the GI50 in the assay on A549 is 32.3 µM (inactive); with ACHN, > 100 µM (inactive); in the assay with CAKI-1, > 100 µM (inactive); in the assay with DU-145, 64.9 µM (inactive); with HCT-15, 61.5 µM; in the assay on HOP-62 it was 75.5 µM (inactive). Besides, the GI50 in the assay with HT-29 was 39.4 µM (inactive); in the assay with KM12 it was 24.4 µM (inactive); in the assay on M14 it was 63 µM (inactive); in the assay on MDA-N, 16.3 µM (inactive); with NCI-H226 it was 89.5 µM (inactive); in the assay on OVCAR-4, > 100 µM (inactive). Also, the GI50 was 25.5 µM (inactive) with SK-MEL-2; > 100 µM (inactive) in the assay on SK-OV-3; 12.6 µM (inactive) in the assay with SR; > 100 µM (inactive) in the assay with TK-10; 58.5 µM (inactive) with UACC-257.
Regarding `CC(=O)OCC1OC(N2C(=O)CC(N)=Nc3ccccc32)C(OC(C)=O)C(OC(C)=O)C1OC(C)=O` (centres undefined), the GI50 in the assay on A549 is > 100 µM (inactive); in the assay with ACHN, 66.5 µM (inactive); in the assay on CAKI-1, > 100 µM (inactive); in the assay with DU-145 it was 63.4 µM (inactive); in the assay on HCT-15, 44.8 µM; in the assay with HOP-62, 81.7 µM (inactive). Moreover, the GI50 with HT-29 is 53.8 µM (inactive); in the assay on K562, 32.6 µM (inactive); in the assay on KM12, 45.2 µM (inactive); in the assay with LOX IMVI, 37.5 µM (inactive); in the assay on M14, 38.6 µM (inactive); with MDA-N it was 32.7 µM (inactive). The GI50 in the assay with OVCAR-4 is 57.8 µM (inactive); with SK-MEL-2, 48.4 µM (inactive); in the assay on SK-MEL-5, 17 µM (inactive); with SK-OV-3, > 100 µM (inactive); in the assay on SR, 41 µM (inactive); with TK-10 it was 75 µM (inactive). Also, the GI50 in the assay with UACC-257 was 32.4 µM (inactive).
Turning to `C=CCSC1=N/C(=C\c2ccc(C)cc2)C(=O)N1CC=C`, the GI50 in the assay on A549 is 21.3 µM (inactive); in the assay with ACHN it was 36.1 µM (inactive); with CAKI-1 it was 80 µM (inactive); in the assay with DU-145 it was 20.7 µM (inactive); with HCT-15, 25.3 µM; in the assay with HOP-62 it was 64.6 µM (inactive). Besides, the GI50 in the assay with HT-29 was 13.9 µM (inactive); in the assay on K562, 10.4 µM (inactive); with KM12, 23.7 µM (inactive); in the assay on LOX IMVI, 26.5 µM (inactive); in the assay on M14, 29 µM (inactive); in the assay on MDA-N, 18.6 µM (inactive). Moreover, the GI50 with OVCAR-4 was 27.3 µM (inactive); in the assay on SK-MEL-2, 25.8 µM (inactive); in the assay with SK-MEL-5 it was 14.3 µM (inactive); with SK-OV-3, 63.4 µM (inactive); in the assay on SR, 11.5 µM (inactive); with TK-10, 44.3 µM (inactive). For the same compound, in the assay with UACC-257, the GI50 is 25.6 µM (inactive).
As to `O=C1Nc2nnc(S)n2NC12c1ccccc1-c1ccccc12`, the GI50 is > 100 µM (inactive) in the assay on A549; > 100 µM (inactive) in the assay with ACHN; 57.3 µM (inactive) with CAKI-1; > 100 µM (inactive) in the assay on DU-145; 97.3 µM with HCT-15; > 100 µM (inactive) in the assay on HOP-62. Also, the GI50 with HT-29 was > 100 µM (inactive); in the assay with LOX IMVI, 58.9 µM (inactive); with M14, 52 µM (inactive); in the assay with MDA-N, 34.5 µM (inactive); in the assay with NCI-H226, > 100 µM (inactive); in the assay on OVCAR-4 it was 19.1 µM (inactive). Besides, the GI50 was > 100 µM (inactive) in the assay with SK-MEL-2; > 100 µM (inactive) with SK-MEL-5; > 100 µM (inactive) with SK-OV-3; 33 µM (inactive) with SR; > 100 µM (inactive) in the assay with TK-10; 17.2 µM (inactive) in the assay on UACC-257.
On to `CN1C(=O)CC2CCC(=O)N2c2cccnc21` (centres undefined), for which the GI50 in the assay on A549 was > 100 µM (inactive); in the assay with ACHN it was > 100 µM (inactive); with CAKI-1, > 100 µM (inactive); with DU-145, > 100 µM (inactive); with HCT-15, > 100 µM; with HOP-62, > 100 µM (inactive). For the same compound, the GI50 in the assay with HT-29, with K562, in the assay with KM12, in the assay with LOX IMVI, with M14 and in the assay on MDA-N was > 100 µM (inactive) throughout. Also, the GI50 in the assay on NCI-H226, in the assay on OVCAR-4, with SK-MEL-2, with SK-MEL-5, in the assay on SR and in the assay with TK-10 was > 100 µM (inactive) in each case. Moreover, the GI50 in the assay with UACC-257 was > 100 µM (inactive).
Take `Cc1n[nH]c(=O)n1C1CCCC1`: the GI50 in the assay with A549 is > 100 µM (inactive); in the assay with ACHN it was > 100 µM (inactive); in the assay with CAKI-1, > 100 µM (inactive); in the assay with DU-145, > 100 µM (inactive); in the assay on HCT-15 it was > 100 µM; in the assay on HOP-62, > 100 µM (inactive). For the same compound, the GI50 in the assay with HT-29, in the assay with K562, in the assay on KM12, with LOX IMVI, in the assay on M14 and in the assay with MDA-N was > 100 µM (inactive) in each case. Further, the GI50 with NCI-H226, with OVCAR-4, in the assay on SK-MEL-5, in the assay on SR, with TK-10 and in the assay with UACC-257 was > 100 µM (inactive) in each case.
Turning to `O=c1cc(C(F)(F)F)c2cc3c(cc2o1)NCCC3`, the GI50 in the assay with A549 is > 100 µM (inactive); in the assay on ACHN it was > 100 µM (inactive); in the assay on CAKI-1, 86.9 µM (inactive); with DU-145, > 100 µM (inactive); with HCT-15, > 100 µM; with HOP-62 it was 17.1 µM (inactive). Besides, the GI50 in the assay on HT-29, in the assay with K562, with KM12, in the assay with LOX IMVI, with M14 and in the assay with MDA-N was > 100 µM (inactive) each time. For the same compound, the GI50 in the assay with NCI-H226 is > 100 µM (inactive); with OVCAR-4, 70.6 µM (inactive); in the assay on SK-MEL-2, 78.3 µM (inactive); with SK-MEL-5, 78.3 µM (inactive); in the assay with SR, > 100 µM (inactive); in the assay with TK-10, > 100 µM (inactive). Moreover, in the assay with UACC-257, the GI50 was > 100 µM (inactive).
